Experimental data reported in US20140178432A1, “PRODUCTION OF DENSE BODIES (DB) FROM HCMV-INFECTED CELLS” (priority 2011, published 2014).
Entries after “also recorded” stand apart in the source; their conditions may differ.

Tests used:
Assay type in all cases: cell-based, human cytomegalovirus (HCMV)
HCMV strain TB40/E = assay: Dense Body (DB) production in HUVEC infected with HCMV strain TB40/E, electron microscopy; conditions: for virions in the cytoplasm of the treated batch / concentration of DB in the cytoplasm of the infected cells (electron microscope): HUVEC infected with HCMV TB40/E, A: 300 nmol/l, B: 300 nmol/l, C: 3 μmol/l; for concentration of DB in the cytoplasm of the infected cells (electron microscope): control only a few DB; for concentration that led to optimal results (DB production): HUVEC infected with HCMV strain TB40/E
Method: (§1) Human foreskin fibroblasts (“human foreskin fibroblasts, HFF”) were added in an amount of 1×10^6 cells per flask in 5 T75-cell culture flasks on the day before the infection. The HCMV strain AD 169 was prepared as a frozen, cell-free virus preparation that was obtained from cells that were present in a late stage of infection. The substances (A), (B), (C), and (D) according to the invention were provided as stock solutions of 50 mmol/l each in DMSO.
(§2) The HFF cells were incubated for one hour with the virus preparation at a m.o.i. (“multiplicity of infection”) of ≧≧1 TCID 50/cell (1:20 dilution). Then, the virus supernatant was removed, and an incubation of the infected cells was carried out with the substances according to the invention at the following concentrations: A: 50 nmol/l; B: 5 nmol/l; C: 500 nmol/l; D: 500 nmol/l.
(§3) The cells were incubated for 5 days, whereby a renewal of the substance-containing medium was performed after the first and fourth days. After the incubation, the infected cells were examined by electron microscope in the formation of DB.
In another experiment, human endothelial cells from the umbilical vein (HUVEC) were infected with the HCMV strain TB40/E, which was isolated from cells in a late stage of infection. The experimental design corresponds to the one shown under 2.1, whereby the incubation of cells was carried out at the following concentrations of the substances according to the invention: A: 300 nmol/l; B: 300 nmol/l: C: 3 μmol/l; D: […].

clinical HCMV isolate = assay: Dense Body (DB) production in HFF infected with a clinical HCMV isolate, co-cultured with non-infected HFF, electron microscopy; conditions: HFF infected with a clinical isolate of HCMV, co-culture with non-infected HFF
Method: HFF were infected with a clinical HCMV isolate, which was isolated from cells in a late stage of infection, as further described above under 2.1. The infected HFF were co-cultivated with non-infected HFF in mini-trays (3,000 cells/recess). Three different ratios of infected/non-infected cells were produced: undiluted; 1:2 diluted; 1:4 diluted. The substances according to the invention were incubated with the cells at the following concentrations: A: 300 nmol/l; B: 300 nmol/l; C: 3 μmol/l; D: 30 μmol/l.
After 5 days of incubation at 37° C., the electron-microscopic study was carried out. […] The greater the dilution with non-infected cells, the fewer DB accumulated in the cytoplasm. In the control batch without a substance according to the invention, only very few DB could be identified. Moreover, the ejection of infectious particles from the cell nucleus was prevented in turn by the addition of the substances according to the invention.

HCMV strain AD169 = assay: Dense Body (DB) production in human foreskin fibroblasts infected with HCMV strain AD169, electron microscopy; conditions: for infectious virus particles in the cytoplasm of treated cells / accumulation of DB in the cytoplasm (electron microscope): HFF infected with HCMV AD169, 5 days incubation, A: 50 nmol/l, B: 5 nmol/l, C: 500 nmol/l, D: 500 nmol/l; for infectious virus particles in the cytoplasm of treated cells: untreated cells relatively large numbers; for accumulation of DB in the cytoplasm (electron microscope): untreated cells virtually no DB; for concentration that led to optimal results (DB production): HFF infected with HCMV strain AD169
Method: as §1
The stock solutions were diluted 1:1000 to a final concentration of 50 μmol/l. The solutions were further diluted as follows: A: 1:1000 (50 nmol/l) 12 μml in 12 ml of MEM; B: 1:10,000 (5 nmol/l) 1.2 μml in 12 ml of MEM; C: 1:100 (500 nmol/l) 120 μml in 12 ml of MEM; D: 1,100 (500 nmol/l) 120 μml in 12 ml of MEM.
as §2, §3

Structure (SMILES) | virions in the cytoplasm of the treated batch (HCMV strain TB40/E) | concentration of DB in the cytoplasm of the infected cells (electron microscope) (HCMV strain TB40/E) | concentration that led to optimal results (DB production) (HCMV strain TB40/E) [nmol/L] | concentration that led to good results (DB production) (clinical HCMV isolate) [nmol/L] | infectious virus particles in the cytoplasm of treated cells (HCMV strain AD169) | accumulation of DB in the cytoplasm (electron microscope) (HCMV strain AD169) | concentration that led to optimal results (DB production) (HCMV strain AD169) [nmol/L]
Cc1ccc(N2CCN(C(=O)c3nc(NC(=O)Nc4ccc(OC(F)(F)F)cc4)cn3C)CC2)nc1 [substance (B), N-{1-methyl-2-[(4-(5-methyl-pyridin-2-yl)-piperazin-1-yl)carbonyl]-1H-imidazol-4-yl}-N′-[4-(trifluoromethoxy)phenyl]urea] | no virions could be detected | strong concentration of DB | 300 | 300 | no single infectious virus particle was to be found | large amounts of DB; also recorded: high concentrations of DB | 5
COc1cccc(N2CCN(C3=Nc4c(F)cccc4[C@H](CC(=O)O)N3c3cc(C(F)(F)F)ccc3OC)CC2)c1 [substance (A), (4S)-{8-fluoro-2-[4-(3-methoxyphenyl)-1-piperazinyl]-3-[2-methoxy-5-(trifluoromethyl)-phenyl]-3,4-dihydro-4-quinazolinyl}acetic acid] | no virions could be detected | strong concentration of DB | 300 | 300 | no single infectious virus particle was to be found | large amounts of DB; also recorded: high concentrations of DB | 50
N#CC1(C(=O)Nc2cc(F)cc(NS(=O)(=O)c3ccc(-c4noc(-c5cccc(N)n5)n4)cc3)c2)CC1 [substance (D), N-{3-[({4-[5-(6-aminopyridin-2yl)-1,2,4-oxadiazol-3-yl]phenyl}sulfonyl)amino]-5-fluorophenyl}-1-cyanocyclopropane carboxamide] | no virions could be detected | strong concentration of DB | 30000 | 30000 | no single infectious virus particle was to be found | large amounts of DB; also recorded: high concentrations of DB | 500
COc1c(N2CCC(C(=O)O)CC2)c(F)cc2c(=O)c(C(=O)NCc3ccc(OC(F)(F)F)cc3C)cn(CC(F)(F)F)c12 [substance (C), 1-[6-fluoro-8-methoxy-3-({[2-methyl-4-(trifluoromethoxy)benzyl]amino}carbonyl)-4-oxo-1-(2,2,2-trifluoroethyl)-1,4-dihydroquinolin-7-yl]piperidine-4-carboxylic acid] | no virions could be detected | strong concentration of DB | 3000 | 3000 | no single infectious virus particle was to be found | large amounts of DB; also recorded: high concentrations of DB | 500
